Patent US9340549B2, “Oxazolidinone compounds and derivatives thereof” (priority 2012, dated 2016)
Like-named read-outs stand apart in the source and are kept apart here.

Columns and labels:
[1] = biological target: 6×HIS-tankyrase 1 (1091-1325) (Homo sapiens (Human), UniProt O95271); experiment: biochemical; format: biochemical
[2] = test system: total β-catenin in SW480 colorectal cells; experiment: cells; format: cell-based
Description: Total β-Catenin MSD 96-Well Plate Assay for SW480 Cells
SW480 colorectal cells were seeded at a density of 10,000/well in CellBIND 96-well plates (Corning catalog no. 3300) in 60 μL of normal growth medium (MEM alpha supplemented with 10% heat inactivated FBS, GlutaMAX, pyruvate, and 10 mM HEPES).
A 10-point, 3-fold dilution series for each TNKS inhibitor was constructed in a 96-well “stock” plate. […] The plates were incubated at 37° C. for 40 to 48 hours. The media was removed from the CellBIND plate via plate inversion and gentle shaking and the inverted plate was touched to a paper towel and immediately placed on ice. […] Plates containing cell lysates were sealed and shaken for one hour at 4° C. and then quickly frozen in a −80° C. for approximately 15 to 30 minutes followed by gradually thawing at 4° C. Finally, lysate containing plates were centrifuged @1000×g (2073 rpm) for 10 minutes at 4° C.
The sealed MSD plate was incubated overnight in a cold room with gentle shaking. The MSD plate was then blocked with 150 μL of Blocker “A” per well and incubated overnight at 4° C. with vigorous shaking. The blocked MSD plate was washed 4 times with 150 μL/well TBS-T wash buffer (150 mM NaCl, 50 mM Tris, pH 7.5, 0.02% Tween-20). Cell lysates (75 μL) were transferred to prepared MSD plates and incubated at 4° C. ON with gentle shaking. […] The detection antibody was incubated for 1 hour at room temperature with vigorous shaking after which plates were washed 3 times with 150 μL/well TBS-T wash buffer. Plates were processed for analysis by the addition of 150 μL/well MSD Read 4× Buffer T with surfactant (catalog no. R92TC-2; diluted 1:3 in deionized water) and were read on the SECTOR Imager 6000.

Axin2 in SW480 cells = experiment: cells; format: cell-based; conditions: read-out: Axin2 384 IF EC50 IP
Description: Using a VPrep, 10 μL of compound/controls was transferred from the compound plate to 60 μL in the cell plate (final 0.5% DMSO, 70 μL). The mixture was incubated for 24 hours at 37° C. at 5% CO2.
The extra media was tapped out. 50 μL of 4% paraformaldehyde (Fisher, AA433689M), 0.1% Triton (Sigma, X100-100 ML) in PBS were added, and the mixture was incubated for 15 minutes at room temperature. […] The extra media was tapped out and to this was added 50 μL of buffer containing Axin2 Antibody (Sigma, SAB1100677-200 µL) at 1:10000 in PBS, 0.1% Tween-20, 1% Normal Goat Serum. The mixture was incubated for 2 hours at room temperature or overnight at 4° C. The cells were then washed twice with PBS, 0.1% Tween-20, and 1% Normal Goat Serum. […] The mixture was then incubated for 30 minutes at room temperature. The cells were then washed twice with PBS, 0.1% Tween-20, and 1% Normal Goat Serum. 50-100 μL PBS was added, and the mixture was covered with a plate seal (Fisher, NC9425162). An ArrayScan (a variation of the compartmental analysis protocol was optimized) was used to scan the plates, and data was analyzed using MEAN_RingSpotAvgIntenCh2). The Axin2 accumulation POC was calculated, and the EC50 was determined using Genedata Screener software to report Axin2 activity.

[3] = […] enzyme, 400 nM NAD, 60 minutes at room temperature, read-out: TNKS1 IP IC50
[4] = Homo sapiens, SW480 cells, 40 to 48 hours, top concentration 10 μM, read-out: SW480-Total β-Catenin IC50 IP
[5] = Homo sapiens, SW480 cells, 24 hours
[6] = 0.25 nM enzyme, 400 nM NAD, 60 minutes at room temperature, read-out: TNKS1 IP IC50
[7] = Homo sapiens, SW480, 24 h, SW480 cells, 24 hours
[8] = Homo sapiens, SW480, read-out: SW480-Total β-Catenin IC50 IP

6×HIS-tankyrase 1 (1091-1325), sequence (O95271 1091-1325): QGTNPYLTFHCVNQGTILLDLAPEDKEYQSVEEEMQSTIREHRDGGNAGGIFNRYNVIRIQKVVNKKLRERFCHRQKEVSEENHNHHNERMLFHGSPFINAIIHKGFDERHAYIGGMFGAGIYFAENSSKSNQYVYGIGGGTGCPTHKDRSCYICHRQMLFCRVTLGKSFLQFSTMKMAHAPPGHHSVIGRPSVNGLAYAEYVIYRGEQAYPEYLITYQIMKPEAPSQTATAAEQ

O=C(Nc1cccc2cccnc12)c1ccc(N2C(=O)OC3(CCC3)C2c2ccccc2)cc1 (centres unmarked) [Example 44, (R+S) 4-(6-oxo-8-phenyl-5-oxa-7-azaspiro[3.4]octan-7-yl)-N-(quinolin-8-yl)benzamide]
IC50 [1, 3]: 822 nM
IC50 [2, 4]: 8800 nM
EC50 (Axin2 in SW480 cells; [5]): > 25 µM

COc1ccc(C2N(c3ccc(C(=O)Nc4cccc5cccnc45)cc3)C(=O)OC2(C)C)cc1 (racemic) [Example 111, (+/−)-(R/S)-4-(4-(4-methoxyphenyl)-5,5-dimethyl-2-oxooxazolidin-3-yl)-N-(quinolin-8-yl)benzamide]
IC50 [1, 6]: 631 nM
IC50 [2, 4]: 2440 nM
EC50 (Axin2 in SW480 cells; [7]): 7.26 µM

CC1(C)OC(=O)N([C@H]2CC[C@H](NC(=O)n3ccc4cccnc43)CC2)[C@H]1c1ccccc1 [Example 58, N-(trans-4-((4S)-5,5-dimethyl-2-oxo-4-phenyl-1,3-oxazolidin-3-yl)cyclohexyl)-1H-pyrrolo[2,3-b]pyridine-1-carboxamide]
IC50 [1, 3]: 7.46 nM
IC50 [2, 4]: 979 nM
EC50 (Axin2 in SW480 cells; [7]): 0.828 µM

CC1(C)OC(=O)N([C@H]2CC[C@H](c3cnc(N)c(Nc4ncccn4)c3)CC2)[C@@H]1c1ccccc1 [Example 13, (S)-3-((1r,4S)-4-(6-Amino-5-(pyrimidin-2-ylamino)pyridin-3-yl)cyclohexyl)-5,5-dimethyl-4-phenyloxazolidin-2-one]
IC50 [1, 3]: 2060 nM
IC50 [2, 4]: > 10000 nM
EC50 (Axin2 in SW480 cells; [7]): > 25 µM

CC1(C)OC(=O)N(c2ccc(C(=O)Nc3cccc4cccnc34)cc2)C1c1ccccc1F (centres unmarked) [Example 42, (R+S) 4-(4-(2-fluorophenyl)-5,5-dimethyl-2-oxooxazolidin-3-yl)-N-(quinolin-8-yl)benzamide]
IC50 [1, 3]: 263 nM
IC50 [2, 4]: 4870 nM
EC50 (Axin2 in SW480 cells; [7]): 9.4 µM

CC1(C)OC(=O)N([C@H]2CC[C@H](c3cc(-c4ncccn4)c[nH]c3=O)CC2)C1c1ccccc1 (mixture of isomers) [Example 7, (+/−)-3-(trans-4-((4S/R)-5,5-Dimethyl-2-oxo-4-phenyl-1,3-oxazolidin-3-yl)cyclohexyl)-5-(2-pyrimidinyl)-2(1H)-pyridinone]
IC50 [1, 6]: 31.8 nM
IC50 [2, 8]: 695 nM
EC50 (Axin2 in SW480 cells; Homo sapiens, SW480, 24 h): 1.46 µM

CC1(C)OC(=O)N([C@H]2CC[C@H](c3nnc(-c4ccccc4)o3)CC2)[C@@H]1c1ccccc1 [Example 86, (R)-5,5-dimethyl-4-phenyl-3-((1r,4R)-4-(5-phenyl-1,3,4-oxadiazol-2-yl)cyclohexyl)oxazolidin-2-one]
IC50 [1, 3]: 32.2 nM
IC50 [2, 4]: > 10000 nM
EC50 (Axin2 in SW480 cells; [7]): 1.66 µM

CC1(C)OC(=O)N(c2ccc(-c3cc(-c4cccnc4)cnc3F)cc2)[C@H]1c1ccccc1 [Example 117, (S)-3-(4-(6-fluoro-[3,3′-bipyridin]-5-yl)phenyl)-5,5-dimethyl-4-phenyloxazolidin-2-one]
IC50 [1, 3]: 193 nM
IC50 [2, 4]: 1050 nM
EC50 (Axin2 in SW480 cells; [7]): 5.74 µM

CC1(C)OC(=O)N([C@H]2CC[C@H](n3c(=O)[nH]c4cnc(C#N)cc43)CC2)[C@H]1c1ccccc1 [Example 54, 1-((1S,4r)-4-((S)-5,5-dimethyl-2-oxo-4-phenyloxazolidin-3-yl)cyclohexyl)-2-oxo-2,3-dihydro-1H-imidazo[4,5-c]pyridine-6-carbonitrile]
IC50 [1, 3]: 7.42 nM
IC50 [2, 4]: 605 nM
EC50 (Axin2 in SW480 cells; [7]): 0.725 µM

CC1(C)OC(=O)N(c2ccc(-c3cc(-c4cccnc4)c[nH]c3=O)cc2)[C@H]1c1ccccc1 [Example 118, (S)-5,5-dimethyl-3-(4-(6-oxo-1,6-dihydro-[3,3′-bipyridin]-5-yl)phenyl)-4-phenyloxazolidin-2-one]
IC50 [1, 3]: 150 nM
IC50 [2, 4]: > 10000 nM
EC50 (Axin2 in SW480 cells; [7]): > 25 µM

CC1(C)OC(=O)N([C@H]2CC[C@@H](c3cnc(N)c(C4=NCCCN4)c3)CC2)[C@H]1c1ccccc1 [Example 76, (S)-3-((1s,4R)-4-(6-amino-5-(1,4,5,6-tetrahydropyrimidin-2-yl)pyridin-3-yl)cyclohexyl)-5,5-dimethyl-4-phenyloxazolidin-2-one]
IC50 [1, 3]: 9840 nM
IC50 [2, 4]: > 10000 nM
EC50 (Axin2 in SW480 cells; [7]): > 25 µM

CC1(C)OC(=O)N(c2ccc(-n3c(=O)[nH]c4cnccc43)cc2)[C@H]1c1ccccc1 [Example 16, (S)-5,5-dimethyl-3-(4-(2-oxo-2,3-dihydro-1H-imidazo[4,5-c]pyridin-1-yl)phenyl)-4-phenyloxazolidin-2-one]
IC50 [1, 3]: 114 nM
IC50 [2, 4]: 2540 nM
EC50 (Axin2 in SW480 cells; [7]): 8.19 µM

CCC1(CC)OC(=O)N(c2ccc(C(=O)Nc3cccc4cccnc34)cc2)[C@H]1c1ccccc1 [Example 43, (S)-4-(5,5-diethyl-2-oxo-4-phenyloxazolidin-3-yl)-N-(quinolin-8-yl)benzamide]
IC50 [1, 3]: 786 nM
IC50 [2, 4]: > 10000 nM
EC50 (Axin2 in SW480 cells; [5]): > 25 µM

CC1(C)OC(=O)N([C@H]2CC[C@H](n3c(=O)oc4cccnc43)CC2)[C@H]1c1ccccc1 [Example 49, 3-(trans-4-((4S)-5,5-dimethyl-2-oxo-4-phenyl-1,3-oxazolidin-3-yl)cyclohexyl)[1,3]oxazolo[4,5-b]pyridin-2(3H)-one]
IC50 [1]: 3460 nM
IC50 [2, 4]: 949 nM
EC50 (Axin2 in SW480 cells; [7]): > 25 µM

CC1(C)OC(=O)N([C@H]2CC[C@H](c3cnc(N)c(C#N)c3)CC2)[C@H]1c1ccccc1 [Example 95, 2-amino-5-((1S,4r)-4-((S)-5,5-dimethyl-2-oxo-4-phenyloxazolidin-3-yl)cyclohexyl)nicotinonitrile]
IC50 [1, 3]: 6.98 nM
IC50 [2, 4]: 468 nM
EC50 (Axin2 in SW480 cells; [7]): 0.474 µM

CC1(c2ccccc2)CN([C@H]2CC[C@@H](n3c(=O)[nH]c4cc(C#N)ccc43)CC2)C(=O)O1 (stereo partly drawn) [Example 92, 1-((1R,4r)-4-((R+S)-5-methyl-2-oxo-5-phenyloxazolidin-3-yl)cyclohexyl)-2-oxo-2,3-dihydro-1H-benzo[d]imidazole-5-carbonitrile]
IC50 [1, 3]: 4.9 nM
IC50 [2, 4]: 177 nM
EC50 (Axin2 in SW480 cells; [7]): 0.183 µM

CC1(C)OC(=O)N([C@H]2CC=C(c3cc(-c4ncccn4)c[nH]c3=O)CC2)[C@H]1c1ccccc1 (single isomer, unassigned) [Example 6]
IC50 [1, 3]: 46.8 nM
IC50 [2, 4]: 585 nM
EC50 (Axin2 in SW480 cells; [7]): 2.66 µM

CC1(C)OC(=O)N([C@H]2CC[C@H](c3cc(C4=NCCCN4)c[nH]c3=O)CC2)[C@H]1c1ccccc1 [Example 130, (S)-5,5-dimethyl-3-((1r,4S)-4-(2-oxo-5-(1,4,5,6-tetrahydropyrimidin-2-yl)-1,2-dihydropyridin-3-yl)cyclohexyl)-4-phenyloxazolidin-2-one]
IC50 [1, 3]: 783 nM
IC50 [2, 8]: > 10000 nM
EC50 (Axin2 in SW480 cells; Homo sapiens, SW480, 24 h): > 25 µM

(S)-5,5-dimethyl-3-(4-(2-oxo-1H-imidazo[4,5-c]pyridin-3(2H)-yl)phenyl)-4-phenyloxazolidin-2-one [Example 15]
IC50 [1, 3]: 105 nM
IC50 ([2]; SW480 cells, 40 to 48 hours, top concentration 10 μM, read-out: SW480-Total β-Catenin IC50 IP): 992 nM
EC50 (Axin2 in SW480 cells; SW480 cells, 24 hours): 4.15 µM

COc1cccc(C2N(c3ccc(C(=O)Nc4cccc5cccnc45)cc3)C(=O)OC2(C)C)c1 (racemic) [Example 105, (+/−)-(R/S)-4-(4-(3-methoxyphenyl)-5,5-dimethyl-2-oxooxazolidin-3-yl)-N-(quinolin-8-yl)benzamide]
IC50 [1, 6]: 152 nM
IC50 [2, 4]: 3250 nM
EC50 (Axin2 in SW480 cells; [7]): 8.93 µM

CC1(C)OC(=O)N([C@H]2CC[C@H](n3c(=O)[nH]c4ncccc43)CC2)[C@@H]1c1ccccc1 [Example 31, (R)-5,5-dimethyl-3-((1r,4R)-4-(2-oxo-2,3-dihydro-1H-imidazo[4,5-b]pyridin-1-yl)cyclohexyl)-4-phenyloxazolidin-2-one]
IC50 [2, 4]: 2660 nM
EC50 (Axin2 in SW480 cells; [7]): 17.5 µM
